Experimental data taken from patent US5434159A, “6,11-cyclyl-1,2,3,4,5,6,11,11a-octahydrobenzo[b]quinolines and compositions and method of use thereof” (Sterling Winthrop Inc., priority 1994, dated 1995).
Counter-ions that a name gives are not always drawn.

How the values were obtained:
[1] = target: PCP recognition sites (PCP receptor); experiment: [^3 H]TCP Radioreceptor Assay (internal screen); type: binding; conditions: whole rat brain membranes, [^3 H]TCP approx. 1 nM, room temperature 25 min; mean of at least two separate determinations
Experimental: [^3 H]TCP Radioreceptor Assay (internal screen)
[^3 H]TCP binding to PCP recognition sites was performed as described by Vignon et al. Brain Research 1983, 280, 194-197. Male Spmgue-Dawley rats were sacrificed by decapitation, and whole brains were homogenized in 10 volumes (wt/vol) of cold Tris-HCl buffer (50 mM, pH 7.7) using a Brinkmann Polytron (setting 6, 30 sec). The homogenate was centrifuged at 40,000×g for 10 min at 4° C. The supernatant was decanted, and the homogenization and centrifugation steps were repeated twice as described above. Following this, the pellet was resuspended in Tris-HCl (5 mM, pH 7.7) at a tissue concentration of 0.5-0.75 g/ml, and one ml aliquots were frozen at -70° C. unto use. The binding characteristics for PCP recognition sites were not altered by the freezing of membrane suspensions.
On the day of the assay, membrane aliquots were thawed, resuspended in fresh 5 mM Tris-HCl buffer at a tissue concentration of 1 mg/ml, and stored on ice until use. Each assay tube contained 100 μl of [^3 H]TCP at a final concentration of approximately 1 nM, 100 μl of various concentrations of the compounds of interest, 500 μl of the tissue suspension and 300 μ of buffer to a final assay volume of 1 ml and a final protein concentration of 0.5 mg/tube. Non-specific binding was defined by addition of a final concentration of 100 μM PCP to blank tubes. All tubes were incubated at room temperature for 25 min before termination of the reaction by rapid filtration over Whatman GF/B glass fiber filters that had been presoaked in a solution of 0.5% polyethyleneimine for at least 1 hr prior to use. Filters were washed with three 4 ml volumes of cold Tris buffer. Following addition of scintillation cocktail, the amount of bound radioactivity was determined by liquid scintillation spectrometry using a Beckman LS 5000 TA liquid scintillation counter with an efficiency for tritium of approximately 55%. Inhibition constants (Ki values) were calculated using the EBDA/LIGAND program (McPherson, J. Pharmacol. Meth. 1985, 14, 213-228), purchased from Elsevier/Biosoft, Inc. Results are reported as Ki values which are expressed as the mean of at least two separate determinations.

[2] = tested on: NMDA-induced neurotoxicity in cultured cortical neurons; experiment: Antagonism of NMDA-induced Neurotoxicity in Cultured Neurons (LDH activity); type: cell-based, Swiss-Webster mice; conditions: 500 μM NMDA for 30 minutes, LDH 24 hours after removal, day 13 cultured cortical neurons
Experimental: Antagonism of NMDA-induced Neurotoxicity in Cultured Neurons
Preparation of cultured cortical neurons
Pregnant, Swiss-Webster mice were obtained from Taconic 0 Farms (Germantown, N.Y.) and sacrificed 16 days post conception. Fetuses were removed and placed in a sterile dish containing Hank's balanced salt solution (HBSS), pH 7.4. Brain cortices were dissected, meninges were removed, the tissue was minced and placed into a solution of HBSS containing 0.25% (w/v) trypsin at 37° C. for 15 minutes. Tissue was then triturated with a sterile pasteur pipet, diluted with minimal essential media (Gibco 330-1430), pH 7.4, supplemented with 10% horse serum, 10% fetal calf serum, 2 mM l-glutamine, 21 mM d-glucose, 2.2 g/L sodium bicarbonate, 1000 U/ml penicillin, and 1,000 μg/ml streptomycin. Cells were plated onto Falcon primaria 96 well plates at a final density of 50,000 cells/well and incubated at 37° C. in the presence of 5% (v/v) carbon dioxide. After 5 days, plating media was replaced with maintenance media containing minimal essential media (Gibco 330-1430), pH 7.4, supplemented with 10% horse serum, […], 21 mM d-glucose, 2.2 g/l sodium bicarbonate, 1,000 U/ml penicillin, 1,000 μg/ml streptomycin, and 10 μM cytosine arabinoside. On days 7 and 10, media was replaced with maintenance media as above lacking the cytosine arabinoside. Experiments were conducted on day 13.
Neuroprotection Assessment
Day 13 cultured cortical neurons were washed twice with minimal essential media, pH 7.4 and then exposed for 30 minutes to 500 μM N-methyl-D-aspartic acid (NMDA) with or without varying concentrations of test agents. Dizocilpine (MK-801) at a final concentration of 10 μM MK-801 was routinely included as a positive control. MK-801 and test agents were prepared in minimal essential media supplemented with 21 mM d-glucose and 2.2 g/L sodium bicarbonate (MEM). After 30 minutes, media was replaced with MEM alone. Exposure of neurons to test agents was limited to the NMDA treatment period. […]

[3] = tested on: PCP recognition sites (PCP receptor); experiment: [^3 H]TCP Radioreceptor Assay (external screen); type: binding; conditions: @10 μM; whole rat forebrain membranes, 25° C., 60 minutes
Experimental: Representative compounds of the invention were also tested in an external [^3 H]TCP radioreceptor assay using the following protocol:
[^3 H]TCP Radioreceptor Assay (external screen)
A procedure similar to that described above for the [^3 H]TCP radioreceptor assay (internal screen) was utilized except that the whole rat forebrain membranes were incubated at 25° C. for 60 minutes rather than at room temperature for 25 minutes, before termination of the reaction. The results are reported as a percent (%) inhibition of binding at 10 μM.

Compound	Ki [1] [µM]	also measured
6,11 [2',3']tetrahydrofuranyl-1,2,3,4,5,6,11,11a-octahydrobenzo [b]quinolizine hydrobromide [Example 8]	0.606	IC50 [2]: 12.2 µM
6,11 [2',3']tetrahydropyranyl-1,2,3,4,5,6,11,11a-octahydrobenzo[b]quinolizine hydrobromide [Example 7]	1.42	–
c1ccc2c(c1)C1C3CCCCC3C2N2CCCCC12 (centres unmarked) [Example 1a, 6,11 [1',2']cyclohexyl-1,2,3,4,5,6,11:11a-octahydrobenzo[b]quinolizine]	0.134	–
c1ccc2c(c1)C1c3ccccc3C2N2CCCCC12 (centres unmarked) [Example 1b, 6,11 [1',2']benzeno-1,2,3,4,5,6,11,11a-octahydrobenzo[b]quinolizine]	0.333	–
CC12c3ccccc3C(C3CCCC31)N1CCCCC12 (centres unmarked) [Example 2, 11-methyl-6,11 [1',2']cyclopentyl-1,2,3,4,5,6,11,11a-octahydrobenzo[b]quinolizine]	0.04	–
Oc1ccc2c(c1)C1C3CCCC3C2C2CCCCN21 (centres unmarked) [Example 3b, 8-hydroxy-6,11 [1',2']cyclopentyl-1,2,3,4,5,6,11,11a-octahydrobenzo[b]quinolizine hydrobromide]	0.0279	–
Brc1ccc2c(c1)C1C3CCCC3C2N2CCCCC12 (centres unmarked) [Example 4, 9-bromo-6,11 [1',2']cyclopentyl-1,2,3,4,5,6,11,11a-octahydrobenzo[b]quinolizine hydrobromide]	0.0437	–
Fc1ccc2c(c1)C1C3CCCC3C2N2CCCCC12 (centres unmarked) [Example 5, 9-fluoro-6,11[1',2']cyclopentyl-1,2,3,4,5,6,11,11a-octahydrobenzo[b]quinolizine fumarate]	0.02	–
Nc1ccc2c(c1)C1C3CCCC3C2N2CCCCC12 (centres unmarked) [Example 6, 9-amino-6,11 [1',2']cyclopentyl-1,2,3,4,5,6,11,11a-octahydrobenzo[b]quinolizine]	0.0118	–
c1ccc2c(c1)C1C3CCCC3C2N2CCCCC12 (centres unmarked) [Example 9a, 6,11 [1',2']cyclopentyl-1,2,3,4,5,6,11,11a-octahydrobenzo[b]quinolizine hydrobromide]	0.0154	IC50 ([2]; Mus musculus, Cortical neurone): 0.1 µM; [^3 H]TCP (external screen) Percent inhibition [3]: 100%
Oc1ccc2c(c1)C1C3CCCC3C2N2CCCCC12 (centres unmarked) [Example 10b, 9-hydroxy-6:11 [1',2']cyclopentyl-1,2,3,4,5,6,11,11a-octahydrobenzo [b]quinolizine hydrobromide]	0.00231	IC50 ([2]; Mus musculus, Cortical neurone): 0.042 µM
c1ccc2c(c1)C1C3CCCCC3C2N2CCCCC12 (centres unmarked) [Example 11, 6,11 [1',2']cyclohexyl-1,2,3,4,5,6,11,11a-octahydrobenzo[b]quinolizine]	0.219	–
Oc1cccc2c1C1C3CCCC3C2N2CCCCC12 (centres unmarked) [Example 12b, 10-hydroxy-6,11 [1',2']cyclopentyl-1,2,3,4,5,6,11,11a-octhydrobenzo[b]quinolizine hydrobromide]	0.00229	–
CC12c3ccccc3C(C3CCCC31)C1CCCCN12 (centres unmarked) [Example 13, 6-methyl-6,11 [1',2']cyclopentyl-1,2,3,4,5,6,11,11a-octahydrobenzo [b]quinolizine]	0.00887	–
[O-][N+]12CCCCC1C1c3ccccc3C2C2CCCC21 (centres unmarked) [Example 14, 6,11 [1',2']cyclopentyl-1,2,3,4,5,6,11,11a-octahydrobenzo[b]quinolizine-5-oxide]	0.0331	–
C[N+]12CCCCC1C1c3ccccc3C2C2CCCC21 (centres unmarked) [Example 15, 5-methyl-6,11 [1',2']cyclopentyl-1,2,3,4,5,6,11,11a-octahydrobenzo[b]quinolizinium bromide]	0.0223	–
